Test results: patent US10239832B2, “N-(1-hydroxy-3-(pyrrolidinyl)propan-2-yl)pyrrolidine-3-carboxamide derivatives as glucosylceramide synthase inhibitors” (BIOMARIN PHARMACEUTICAL INC., priority 2013, dated 2019)

molecular target: T1, GCS (Canis lupus familiaris, UniProt A0A8I3MXG6); assay: GCS enzymatic assay (MDCK cell lysate, NBD-ceramide to glucosylceramide, LC/MS); type: biochemical, canine; details: Table 2; class symbols A, B, C; the table does not say which of the assays; read-out: Data Range (IC50 values)
T1 construct: endogenous in cells; host or cells: MDCK (Madin-Darby canine kidney) cells, whole-cell lysate
T1 sequence (A0A8I3MXG6 1-394): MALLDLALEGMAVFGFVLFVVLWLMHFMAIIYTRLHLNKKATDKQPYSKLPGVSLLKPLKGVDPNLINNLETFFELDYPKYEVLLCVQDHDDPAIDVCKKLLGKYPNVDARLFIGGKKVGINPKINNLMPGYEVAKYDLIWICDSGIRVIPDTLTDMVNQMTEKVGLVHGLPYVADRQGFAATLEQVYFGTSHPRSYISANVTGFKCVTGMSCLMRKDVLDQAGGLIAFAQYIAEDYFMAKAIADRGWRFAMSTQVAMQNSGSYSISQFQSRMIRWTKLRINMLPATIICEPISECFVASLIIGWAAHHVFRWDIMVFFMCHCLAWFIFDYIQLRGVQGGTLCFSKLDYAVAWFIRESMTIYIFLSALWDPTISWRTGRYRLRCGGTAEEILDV
Outline: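 IC50 or percent inhibition came from LC/MS/MS (ESI+, MRM) of NBD-ceramide and glucosylceramide, with tolbutamide as internal standard. The reaction used MDCK (canine) cell lysate as the enzyme source and was ended with acetonitrile. Mock wells received 0.1% DMSO.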

| Structure (SMILES) | IC50 |
| --- | --- |
| CC(C)(C)Oc1ccc([C@@H](O)[C@@H](CN2CCCC2)NC(=O)[C@@H]2CCN(c3ccc(Cl)cc3)C2)cc1Cl [Compound 135, (R)-N-((1R,2R)-1-(4-(tert-butoxy)-3-chlorophenyl)-1-hydroxy-3-(pyrrolidin-1-yl)propan-2-yl)-1-(4-chlorophenyl)pyrrolidine-3-carboxamide] | 1 to 30 nM |
| O=C(N[C@H](CN1CCCC1)[C@H](O)c1cc2c(c(C(F)(F)F)c1)OCCO2)[C@@H]1CCN(c2ccc(Cl)cc2)C1 [Compound 137, (R)-1-(4-chlorophenyl)-N-((1R,2R)-1-hydroxy-3-(pyrrolidin-1-yl)-1-(8-(trifluoromethyl)-2,3-dihydrobenzo[b][1,4]dioxin-6-yl)propan-2-yl)pyrrolidine-3-carboxamide] | 30 to 100 nM |
| O=C(N[C@H](CN1CCCC1)[C@H](O)c1ccc(OC2CC2)c(Cl)c1)[C@@H]1CCN(c2ccc(Cl)c(-c3ccc(F)cc3)c2)C1 [Compound 138, (R)-1-(6-chloro-4′-fluoro-[1,1′-biphenyl]-3-yl)-N-((1R,2R)-1-(3-chloro-4-cyclopropoxyphenyl)-1-hydroxy-3-(pyrrolidin-1-yl)propan-2-yl)pyrrolidine-3-carboxamide] | 30 to 100 nM |
| CC(C)(C)c1ccc(N2CC[C@@H](C(=O)N[C@H](CN3CCCC3)[C@H](O)c3ccc(OC4CC4)c(Cl)c3)C2)cc1 [Compound 139, (R)-1-(4-(tert-butyl)phenyl)-N-((1R,2R)-1-(3-chloro-4-cyclopropoxyphenyl)-1-hydroxy-3-(pyrrolidin-1-yl)propan-2-yl)pyrrolidine-3-carboxamide] | 30 to 100 nM |
| O=C(N[C@H](CN1CCCC1)[C@H](O)c1ccc(OC2CCC2)c(Cl)c1)[C@@H]1CCN(c2ccc(Cl)cc2)C1 [Compound 140, (R)-N-((1R,2R)-1-(3-chloro-4-cyclobutoxyphenyl)-1-hydroxy-3-(pyrrolidin-1-yl)propan-2-yl)-1-(4-chlorophenyl)pyrrolidine-3-carboxamide] | 1 to 30 nM |
| O=C(N[C@H](CN1CCCC1)[C@H](O)c1ccc(OC2CCCC2)c(Cl)c1)[C@@H]1CCN(c2ccc(Cl)cc2)C1 [Compound 141, (R)-N-((1R,2R)-1-(3-chloro-4-(cyclopentyloxy)phenyl)-1-hydroxy-3-(pyrrolidin-1-yl)propan-2-yl)-1-(4-chlorophenyl)pyrrolidine-3-carboxamide] | 30 to 100 nM |
| CC(C)(C)c1ccc(N2CC[C@@H](C(=O)N[C@H](CN3CCCC3)[C@H](O)c3cc(F)c4c(c3)OCCO4)C2)cc1 [Compound 142, (R)-1-(4-(tert-butyl)phenyl)-N-((1R,2R)-1-(8-fluoro-2,3-dihydrobenzo[b][1,4]dioxin-6-yl)-1-hydroxy-3-(pyrrolidin-1-yl)propan-2-yl)pyrrolidine-3-carboxamide] | 30 to 100 nM |
| O=C(N[C@H](CN1CCCC1)[C@H](O)c1cc(F)c2c(c1)OCCO2)[C@@H]1CCN(c2ccc(Cl)c(-c3ccc(F)cc3)n2)C1 [Compound 144, (R)-1-(5-chloro-6-(4-fluorophenyl)pyridin-2-yl)-N((1R,2R)-1-(8-fluoro-2,3-dihydrobenzo[b][1,4]dioxin-6-yl)-1-hydroxy-3-(pyrrolidin-1-yl)propan-2-yl)pyrrolidine-3-carboxamide] | 1 to 30 nM |
| O=C(N[C@H](CN1CCCC1)[C@H](O)c1ccc(SC2CC2)c(Cl)c1)[C@@H]1CCN(c2ccc(Cl)cc2)C1 [Compound 145, (R)-N-((1R,2R)-1-(3-chloro-4-(cyclopropylthio)phenyl)-1-hydroxy-3-(pyrrolidin-1-yl)propan-2-yl)-1-(4-chlorophenyl)pyrrolidine-3-carboxamide] | 1 to 30 nM |
| O=C(N[C@H](CN1CCCC1)[C@H](O)c1ccc(OC2CC2)c(Cl)c1)[C@@H]1CCN(c2ccc(Cl)c(-c3ccc(F)cc3)n2)C1 [Compound 146, (R)-N-((1R,2R)-1-(3-chloro-4-cyclopropoxyphenyl)-1-hydroxy-3-(pyrrolidin-1-yl)propan-2-yl)-1-(5-chloro-6-(4-fluorophenyl)pyridin-2-yl)pyrrolidine-3-carboxamide] | 1 to 30 nM |
| C=COc1ccc([C@@H](O)[C@@H](CN2CCCC2)NC(=O)[C@@H]2CCN(c3ccc(Cl)cc3)C2)cc1Cl [Compound 147, (R)-N-((1R,2R)-1-(3-chloro-4-(vinyloxy)phenyl)-1-hydroxy-3-(pyrrolidin-1-yl)propan-2-yl)-1-(4-chlorophenyl)pyrrolidine-3-carboxamide] | 1 to 30 nM |
| O=C(N[C@H](CN1CCCC1)[C@H](O)c1ccc(OC2CC2)cc1)[C@@H]1CCN(c2ccc(F)cc2)C1 [Compound 148, (R)-N-((1R,2R)-1-(4-cyclopropoxyphenyl)-1-hydroxy-3-(pyrrolidin-1-yl)propan-2-yl)-1-(4-fluorophenyl)pyrrolidine-3-carboxamide] | 1 to 30 nM |
| O=C(N[C@H](CN1CCCC1)[C@H](O)c1ccc(OC2CC2)cc1)[C@@H]1CCN(c2ccccc2)C1 [Compound 149, (R)-N-((1R,2R)-1-(4-cyclopropoxyphenyl)-1-hydroxy-3-(pyrrolidin-1-yl)propan-2-yl)-1-phenylpyrrolidine-3-carboxamide] | 1 to 30 nM |
| O=C(N[C@H](CN1CCCC1)[C@H](O)c1ccc(OC2CC2)c(Cl)c1)[C@@H]1CCN(c2ccccc2)C1 [Compound 150, (R)-N-((1R,2R)-1-(3-chloro-4-cyclopropoxyphenyl)-1-hydroxy-3-(pyrrolidin-1-yl)propan-2-yl)-1-phenylpyrrolidine-3-carboxamide] | 1 to 30 nM |
| O=C(N[C@H](CN1CCCC1)[C@H](O)c1ccc(OC2CC2)c(F)c1)[C@@H]1CCN(c2ccccc2)C1 [Compound 151, (R)-N-((1R,2R)-1-(4-cyclopropoxy-3-fluorophenyl)-1-hydroxy-3-(pyrrolidin-1-yl)propan-2-yl)-1-phenylpyrrolidine-3-carboxamide] | 1 to 30 nM |

Second part, the compound after the results:

| IC50 | Structure (SMILES) |
| --- | --- |
| 1 to 30 nM | O=C(N[C@H](CN1CCCC1)[C@H](O)c1ccc(OC2CC2)c(Cl)c1)[C@@H]1CCN(c2ccc(Cl)c(Oc3ccc(F)cc3)c2)C1 [Compound 128, (R)-1-(4-chloro-3-(4-fluorophenoxy)phenyl)-N-((1R,2R)-1-(3-chloro-4-cyclopropoxyphenyl)-1-hydroxy-3-(pyrrolidin-1-yl)propan-2-yl)pyrrolidine-3-carboxamide] |
| 1 to 30 nM | Cc1cccc(Oc2cc(N3CC[C@@H](C(=O)N[C@H](CN4CCCC4)[C@H](O)c4ccc(OC5CC5)c(Cl)c4)C3)ccc2Cl)n1 [Compound 131, (R)-1-(4-chloro-3-((6-methylpyridin-2-yl)oxy)phenyl)-N-((1R,2R)-1-(3-chloro-4-cyclopropoxyphenyl)-1-hydroxy-3-(pyrrolidin-1-yl)propan-2-yl)pyrrolidine-3-carboxamide] |
| 1 to 30 nM | Cn1ncc2ccc(N3CC[C@@H](C(=O)N[C@H](CN4CCCC4)[C@H](O)c4cc(F)c5c(c4)OCCO5)C3)cc21 [Compound 132, (R)-N-((1R,2R)-1-(8-fluoro-2,3-dihydrobenzo[b][1,4]dioxin-6-yl)-1-hydroxy-3-(pyrrolidin-1-yl)propan-2-yl)-1-(1-methyl-1H-indazol-6-yl)pyrrolidine-3-carboxamide] |
| 1 to 30 nM | Cn1ncc2ccc(N3CC[C@@H](C(=O)N[C@H](CN4CCCC4)[C@H](O)c4ccc(OC5CC5)c(Cl)c4)C3)cc21 [Compound 133, (R)-N-((1R,2R)-1-(3-chloro-4-cyclopropoxyphenyl)-1-hydroxy-3-(pyrrolidin-1-yl)propan-2-yl)-1-(1-methyl-1H-indazol-6-yl)pyrrolidine-3-carboxamide] |
| 1 to 30 nM | Cn1ncc2ccc(N3CC[C@@H](C(=O)N[C@H](CN4CCC4)[C@H](O)c4cc(F)c5c(c4)OCCO5)C3)cc21 [Compound 134, (R)-N-((1R,2R)-3-(azetidin-1-yl)-1-(8-fluoro-2,3-dihydrobenzo[b][1,4]dioxin-6-yl)-1-hydroxypropan-2-yl)-1-(1-methyl-1H-indazol-6-yl)pyrrolidine-3-carboxamide] |
| 1 to 30 nM | O=C(N[C@H](CN1CCCC1)[C@H](O)c1ccc(OC2CC2)c(Cl)c1)[C@@H]1CCN(c2ccc(Cl)c(OC3CCCCC3)c2)C1 [Compound 136, (R)-1-(4-chloro-3-(cyclohexyloxy)phenyl)-N-((1R,2R)-1-(3-chloro-4-cyclopropoxyphenyl)-1-hydroxy-3-(pyrrolidin-1-yl)propan-2-yl)pyrrolidine-3-carboxamide] |
| 1 to 30 nM | O=C(N[C@H](CN1CCCC1)[C@H](O)c1ccc2c(c1)OC=CO2)[C@@H]1CCN(c2ccc(Cl)cc2)C1 [Compound 143, (R)-N-((1R,2R)-1-(benzo[b][1,4]dioxin-6-yl)-1-hydroxy-3-(pyrrolidin-1-yl)propan-2-yl)-1-(4-chlorophenyl)pyrrolidine-3-carboxamide] |

same assay, conditions: Table 2; class symbols D, E, F, NA (not active); the table does not say which of the assays

| Data Range (% inhibition) | Structure (SMILES) |
| --- | --- |
| F (1-49% (or less than 50%)) | O=C(N[C@H](CN1CCCC1)[C@H](O)c1ccc(OC2CC2)c(Cl)c1)[C@@H]1CCN(C(=O)c2ccccc2)C1 [Compound 129, (R)-1-benzoyl-N-((1R,2R)-1-(3-chloro-4-cyclopropoxyphenyl)-1-hydroxy-3-(pyrrolidin-1-yl)propan-2-yl)pyrrolidine-3-carboxamide] |
| E (50-74% (or less than 75%)) | O=C(N[C@H](CN1CCCC1)[C@H](O)c1ccc2c(c1F)OCCO2)[C@@H]1CCN(c2ccc(Cl)cc2)C1 [Compound 130, (R)-1-(4-chlorophenyl)-N-((1R,2R)-1-(5-fluoro-2,3-dihydrobenzo[b][1,4]dioxin-6-yl)-1-hydroxy-3-(pyrrolidin-1-yl)propan-2-yl)pyrrolidine-3-carboxamide] |
